The test system of one assay is Plutella xylostella. Kind of assay: Diamond back moth leaf-dip test on cabbage leaves. It counts as in vivo. The settings on record: 3rd instar larvae on dipped cabbage leaves, 72 hours after treatment, read-out: mortality in comparison with untreated controls. The protocol:
The active compound was dissolved at the desired concentration in a mixture of 1:1 (vol:vol) distilled water: acetone. Surfactant (Kinetic HV) was added at a rate of 0.01% (vol/vol). The test solution was prepared on the day of use.
Leaves of cabbage were dipped in test solution and air-dried. Treated leaves were placed in petri dishes lined with moist filter paper and inoculated with ten 3rd instar larvae. Mortality was recorded 72 hours after treatment. Feeding damages were also recorded using a scale of 0-100%.

Another assay deals with Spodoptera eridania. Briefly: Southern armyworm foliar spray test on lima bean plants. It counts as in vivo. The settings on record: 96 h, 2nd instar larvae on sprayed lima bean plants, 4 days after treatment, read-out: mortality in comparison with untreated controls. The protocol: The active compounds were formulated by a Tecan liquid handler in 100% cyclohexanone as a 10,000 ppm solution supplied in tubes. The 10,000 ppm solution was serially diluted in 100% cyclohexanone to make interim solutions. These served as stock solutions for which final dilutions were made by the Tecan in 50% acetone:50% water (v/v) into 10 or 20ml glass vials. A nonionic surfactant (Kinetic®) was included in the solution at a volume of 0.01% (v/v). The vials were then inserted into an automated electrostatic sprayer equipped with an atomizing nozzle for application to plants/insects. Lima bean plants (variety Sieva) were grown 2 plants to a pot and selected for treatment at the 1st true leaf stage. Test solutions were sprayed onto the foliage by an automated electrostatic plant sprayer equipped with an atomizing spray nozzle. The plants were dried in the sprayer fume hood and then removed from the sprayer. Each pot was placed into perforated plastic bags with a zip closure. Ten to 11 armyworm larvae were placed into the bag and the bags zipped closed. Test plants were maintained in a growth room at about 25°C and about 20-40% relative humidity for 4 days, avoiding direct exposure to fluorescent light (14:10 light:dark photoperiod) to prevent trapping of heat inside the bags. Mortality and reduced feeding were assessed 4 days after treatment, compared to untreated control plants.

Mortality data for 2 molecules are collected here from patent EP4151631A1, “HETEROCYCLIC COMPOUNDS FOR THE CONTROL OF INVERTEBRATE PESTS” (BASF SE, priority 2021, dated 2023).

As a reminder, the mortality is the percentage killed. For the molecule `CC(NC(=O)c1cc(Br)cc(C(F)(F)F)c1)c1nccnc1-n1ncn(C)c1=O` (stereo not shown) [I-1, 3-bromo-N-[1-[3-(4-methyl-5-oxo-1,2,4-triazol-1-yl)pyrazin-2-yl]ethyl]-5-(trifluoromethyl)benzamide], the mortality at 300 ppm in the assay on Plutella xylostella and in the assay on Spodoptera eridania was not below 75% in each case.
Turning to `CC(NC(=O)c1cc(Br)cc(C(F)(F)F)c1)c1nccnc1-n1ncn(CC(F)(F)F)c1=O` (stereo not shown) [I-2, 3-bromo-N-[1-[3-[5-oxo-4-(2,2,2-trifluoroethyl)-1,2,4-triazol-1-yl]pyrazin-2-yl]ethyl]-5-(trifluoromethyl)benzamide], the mortality at 300 ppm with Plutella xylostella and with Spodoptera eridania was not below 75% in each case.
